A melting point compilation (Tetko et al.; mined from patent text by program, amines drawn as free bases though some values may be those of a salt)

Compound | melting point [°C]
CCOc1cc(CC)ccc1C1CCN(CCCCNC(=O)c2ccc(-c3ccc(S(C)(=O)=O)cc3)cc2)CC1 | 179 to 180
OCCC1(S)C2CC3CC(C2)CC1C3 (centres undefined) | 68 to 70
Cc1c(-c2ccccc2)oc2c(CSCCCl)cccc2c1=O | 82 to 83
O=P(OC1=Nc2ccc(Cl)cc2C(c2ccccc2Cl)=NC1)(N1CCOCC1)N1CCOCC1 | 185 to 187
CCCN(CCC)C(=O)CNc1ccnc(-c2ccccc2)n1 | 74 to 75
C[C@@H]1Cc2cc(N3C[C@H](CN)OC3=O)ccc2N1C(=O)OCc1ccccc1 | 120 to 122
COC(=O)c1sc(N)cc1NC(C)=O | 162 to 163
O=Cc1nn(-c2ccc([N+](=O)[O-])cc2)c2c1CCC2 | 209 to 210
CCC1=NNC(C)=C(C(=O)OCc2ccco2)C1c1cccc([N+](=O)[O-])c1 (centres undefined) | 152
CCC(C)C(NC(=O)C(CSC(C)=O)C(F)(F)F)C(=O)O (centres undefined) | 81 to 85
CCCCCCCCCCCCC(C(=O)NO)S(=O)(=O)c1ccc(OC)cc1 (centres undefined) | 114
CC(=O)c1cccc(NC(=O)NCC(=O)N(CC(=O)N2CCCc3ccccc32)c2ccccc2)c1 | 130
CCCCCCCCCCCCC(=O)CC(O)Cc1ccccc1 (centres undefined) | 40 to 43
CCOC(=O)c1c(O)ncnc1CC | 84.5 to 86
CCOC(=O)c1sc(SC)c2c1CCc1cn[nH]c1-2 | 207 to 208
O=C(CCNc1c(C(=O)O)[nH]c2cc(Cl)cc(Cl)c12)c1cccc(F)c1 | 270 to 280
Fc1ccc(F)c(C=C2CCNc3nc(Br)ccc32)c1 | 178 to 179
COc1ccc(S(=O)(=O)Nc2ccccc2NC(=O)c2ccccc2)cc1OC | 183 to 184
CCC(=O)NN=C(Nc1ccc([N+](=O)[O-])cc1)c1ccc(OC)cc1 | 200
NC1=C2C=NN=C2N(c2ccc(Cl)c(Cl)c2)CN1c1ccccc1 | 306 to 307
CCOC(=O)C1=C(C)Nc2nc(N3CCOCC3)nc(N3CCOCC3)c2C1c1ccsc1 (centres undefined) | 208
O=c1cc(-c2ccccc2)oc2cccc(OCCCCCCI)c12 | 166 to 168
COc1c2c(cc3ccncc13)OCO2 | 144 to 145

Compound | melting point [°C]
CCOC(=O)/C(Cl)=N/Nc1ccc(OC)cc1 | 87 to 89
COc1cccc([C@H](O)C[C@@H]2CCCN2C)c1 (relative stereo) | 79 to 82
COc1cc(CO)ccc1OCc1nc(-c2ccccc2)sc1C | 134 to 135
CS(=O)c1ccc(Oc2ccc(Cl)c(Cl)c2)nc1C(N)=O (centres undefined) | 185 to 187
CN(C)CCOc1ccc2c(c1)C(c1ccccc1)CC(=O)N2 (centres undefined) | 133 to 135
CCOCn1c(-c2ccc(Cl)cc2)c(C#N)c(Cl)c1C(F)(F)F | 104
CN(CCO)c1cc2c(=O)n(NS(C)(=O)=O)c(=O)[nH]c2cc1C(F)(F)F | 220 to 224
Cn1cc(-c2ccncn2)cc(Br)c1=O | 208 to 210
CCCC(=O)n1nc2c(c1NC)c(=O)n(CCC)c(=O)n2Cc1ccccc1 | 138 to 139
CC(C)(C)OC(=O)N1CCn2c(c(C(N)=O)c(C#N)c2C2CCN(C(=O)OCc3ccccc3)CC2)C1 | 90
COc1ccc(S(=O)(=O)Nc2cccnc2Nc2ccccc2)cc1OC | 171 to 172
CC(NC(=O)Cc1cc(F)cc(F)c1)C(=O)NC1(c2ccccc2)NC(=O)Cc2ccccc21 (centres undefined) | 200 to 205
Cc1cc2nccn2nc1OCC(C)(C)CCS(N)(=O)=O | 161 to 162
COc1ccc(-n2c(=O)c(CCCO)c(O)c3cccnc32)cc1 | 229 to 231
CN1CCC[C@H]1Cc1cc2cccnc2[nH]1 | 130 to 131
Cc1nnc2n1-c1ccc(Cl)cc1C(N1CC=CCC1)=NC2 | 192 to 194
CN(C(=O)c1cnc(N2CCNC2=O)nc1N)c1cccc(C(F)(F)F)c1 | 249 to 250
CCNc1c([N+](=O)[O-])cc(C(C)(C)C)cc1[N+](=O)[O-] | 70 to 73
O=S(=O)(Nc1ccccc1/C=C/c1ccncc1)c1ccc(Cl)cc1 | 218 to 220
CS(=O)(=O)c1ccc(-n2nc(C(F)(F)F)cc2-c2ccc(-c3cscn3)c(F)c2)cc1 | 176 to 178
COc1cc(Nc2cc(-c3ccccc3)on2)ccc1-c1cnco1 | 173 to 175
Cc1nnc(-c2ccc3occ(-c4cc(F)ccc4F)c3c2)o1 | 143 to 144
COC1=C(OC)C(=O)c2cc(Sc3ccccc3Cl)ccc2C1=O | 125 to 126

Other lines, results leading:

melting point [°C] | Compound
> 270 | Clc1sc(Cl)c2c1CNC2
196 to 197 | Cc1[nH]n(C(C)(C)C)c2nc(Cc3ccccc3)nc(=O)c1-2
82 to 83 | CCCCCCCCCCCC#Cc1ccccc1C=CP(=O)(O)O
148 | COc1cc(C)c(NCCO)cc1N
29 to 30.5 | CCCCOCCCCCCCCCCC(=O)O
169 to 172 | O=C(O)C#CC(O)(c1ccc(OCc2ccc3ccccc3n2)cc1)c1ccc(OCc2ccc3ccccc3n2)cc1
132 to 135 | CN(c1cccc2cc(C3=NCC(CC(=O)N4CCC[C@H]4C(=O)O)S3)[nH]c12)S(=O)(=O)c1ccccc1C(F)(F)F (some centres undefined)
96 to 97 | COC(=O)c1c(F)c(F)c(NCc2ccccc2)c(F)c1F
69 | CCCCCc1ccc(CCc2ccc(-c3ccc([C@H]4CC[C@H](CCCCC)CC4)cc3F)cc2)cc1
195 to 197 | CN(C)c1ccc(C2OC(=O)c3c(Cl)c(Cl)c(Cl)c(Cl)c32)c(N(C)C)c1 (centres undefined)
73 to 75 | CCC(C)NC(=O)n1nc(Oc2c(Cl)cc(C(F)(F)F)cc2Cl)cc1C (centres undefined)
107 to 114 | O=C(CCCCN1CCOCC1)NNC(=O)N1Cc2ccccc2Oc2ccc(Cl)cc21
90 to 92 | CCCCN1CC(=O)NC1=O
229 to 230 | Cc1nc2c(OCc3c(Cl)ccc(N(C)C(=O)CN4C(=O)c5ccccc5C4=O)c3Cl)cccn2c1Br
81 to 89 | NCC#Cc1ccc(Cl)cc1C(=O)c1ccccc1Cl
261 to 263 | Cc1cc(C)nc(S(=O)(=O)Nc2c(Cl)cccc2Cl)n1
230 | CNc1ccc(NC(=O)c2ccc(-c3[nH]nc4c3C(=O)c3c(NC(=O)NN5CCOCC5)cccc3-4)s2)cc1
160 to 170 | CCOC(=O)c1[nH]cc2c1NC1=C(C(=O)CCC1)C2c1ccc(Sc2nc3cc(F)c(F)cc3[nH]2)o1 (centres undefined)
168 to 174 | N#Cc1ccccc1-c1cc(-c2cnc3nc(C(F)(F)F)cnn23)ccc1F
202 to 204 | COc1cc(C(C)=O)ccc1OCCCN1CCC(c2n[nH]c3cc(F)ccc23)CC1
164 to 165 | CC(C)c1nc(CN2C(=O)C3(COc4cc5c(cc43)OCO5)c3c(-c4ccc(N(C)C)nc4)cccc32)cs1 (centres undefined)
197 to 200 | Nc1cnc(-c2ccc(Cl)cc2)n(CC(=O)NC(Cc2ccccc2)C(=O)C(F)(F)F)c1=O (centres undefined)
132 to 135 | O=C1N(Cc2ccc(Cl)s2)c2ccccc2C12COc1ccc(OCc3ccccc3)cc12 (centres undefined)
104 to 105 | Cc1oc(-c2ccccc2)nc1COc1cc(CCl)ccn1
65.8 | OC(COc1ccc(F)c(F)c1)CN1CCC(NCc2nc3ccccc3s2)CC1 (single isomer, unassigned; (+))
126 to 128 | CSc1ccc(CN2CCC(=O)C(C(c3ccccc3)c3ccccc3)C2)cc1 (centres undefined)
68 to 70 | Oc1c(Cl)cc(-c2ccco2)cc1Cl

melting point [°C] | Compound
205 to 210 | COc1cc(N)c(-c2ncn[nH]2)cc1OC
163 | O=C(Nc1ccccc1)O[C@@H]1CN=C(c2ccc3ccccc3c2)O[C@H]1c1ccccc1 (racemic)
209 to 211 | CCOC(=O)NN=Cc1nc(-c2ccccc2)[nH]c1C
140 | COc1cc(N)c(Cl)cc1C(=O)OCC1CCN(CCCOc2ccc(F)cc2)CC1
175 | CCC(CC)(CC(=O)Nc1cccc(OCc2ccc3ccc(Br)cc3n2)c1)C(=O)O
216 to 218 | CCCc1c(O)cc(O)c(C(=O)CCc2ccc(O)cc2)c1O
74 to 77 | Nc1c(Cl)cc(C(O)CNCCCCOCCSCCc2ccccc2)cc1Cl (centres undefined)
152 to 154 | CS(=O)(=O)c1ccc(N2CCc3ccccc32)c([N+](=O)[O-])c1
125 to 128 | Nc1nc2c(s1)CCN(CC=Cc1ccccc1[N+](=O)[O-])CC2
> 260 | CSc1[nH]c(C(C)C)nc(=O)c1C#N
244 to 247 | CC(=O)Nc1ccc(N2CCN(c3ccncc3)CC2)cc1
244 to 246 | COc1ccc(Cn2c(=O)[nH]c3cc([N+](=O)[O-])ccc3c2=O)cc1
236 | Nc1ccc(-c2nnsc2-c2ccc(N)cc2)cc1
250 to 252 | Cc1ccc2[nH]c3c(cc(-c4cccc(Nc5ccccn5)c4)c(=O)n3C)c2c1
42 to 47 | CC1CC(=O)c2ccc(F)cc2O1 (centres undefined)
118 to 119 | CC(=O)Oc1ccc2ncc3c(c2c1)CCCC3
139 to 142 | CCSc1cc(C)nc(SCC)c1NC(=O)CCCCCSc1nc2ccccc2[nH]1
138 to 140 | COc1cc(C(C)=O)ccc1OCCCN1CCN(c2nn(C(=O)c3ccccc3)c3cccc(F)c23)CC1
90 to 93 | CCCc1nc(C(C)(C)O)c(C(=O)OCc2oc(=O)oc2C)n1Cc1ccc(-c2ccccc2C(=O)O)cc1
78 to 80 | CN1C(=O)CC[C@]2(C)c3ccc(SCc4nc5ccccc5s4)cc3CC[C@@H]12
270 to 273 | Cc1nc2sccn2c1C1=NNC(=O)CN1
130 to 131 | CC(C)(C)c1ccc(CCC(CO)CC2CCCCC2)cc1NC(=O)CC1c2ccccc2Oc2ccccc21 (centres undefined)
66 to 67 | FC(F)(F)c1cccc(OC(c2ccc(Cl)cc2)c2ncco2)c1 (centres undefined)
> 300 | COc1ccc(-c2cnc3c(-c4cc(-c5ccccc5)cs4)cnn3c2O)cc1Br
55 to 70 | Cc1ccsc1C(=COCCN1CCC[C@@H](C(=O)O)C1)c1sccc1C
> 270 | CC1(C)CC(NC(=O)c2ccc(-c3cc4cc(Cl)c(Cl)cc4[nH]3)c(O)c2)CC(C)(C)N1
